Test system: 521955-158-R2-J5-PDC complex spheroid viability
Assay: Anticancer human tumor 521955-158-R2-J5-PDC patient-derived pancreatic carcinoma cell line growth inhibition [GQUAD]
Settings: for IC50: curve of first compound; for viability, T/C: stronger effect = lower value
In short: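 Tumor cells were grown as complex spheroids with HUVEC endothelial cells and mesenchymal stem cells as stroma. G-quadruplex stabilizers were combined with targeted agents over half-log dilutions from near the clinical Cmax, or from 10 microM.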

[1] = second compound 0.0316 µM, first compound 0.0316 µM
[2] = second compound 0.0316 µM, first compound 0.1 µM
[3] = second compound 0.0316 µM, first compound 0.316 µM
[4] = second compound 0.0316 µM, first compound 1 µM
[5] = second compound 0.0316 µM, first compound 3.16 µM
[6] = second compound 0.0316 µM, first compound 10 µM
[7] = second compound 0.1 µM, first compound 0.0316 µM
[8] = second compound 0.1 µM, first compound 0.1 µM
[9] = second compound 0.1 µM, first compound 0.316 µM
[10] = second compound 0.1 µM, first compound 1 µM
[11] = second compound 0.1 µM, first compound 3.16 µM
[12] = second compound 0.1 µM, first compound 10 µM
[13] = second compound 0.316 µM, first compound 0.0316 µM
[14] = second compound 0.316 µM, first compound 0.1 µM
[15] = second compound 0.316 µM, first compound 0.316 µM
[16] = second compound 0.316 µM, first compound 1 µM
[17] = second compound 0.316 µM, first compound 3.16 µM
[18] = second compound 0.316 µM, first compound 10 µM
[19] = second compound 1 µM, first compound 0.0316 µM
[20] = second compound 1 µM, first compound 0.1 µM
[21] = second compound 1 µM, first compound 0.316 µM
[22] = second compound 1 µM, first compound 1 µM
[23] = second compound 1 µM, first compound 3.16 µM
[24] = second compound 1 µM, first compound 10 µM
[25] = second compound 3.16 µM, first compound 0.0316 µM
[26] = second compound 3.16 µM, first compound 0.1 µM
[27] = second compound 3.16 µM, first compound 0.316 µM
[28] = second compound 3.16 µM, first compound 1 µM
[29] = second compound 3.16 µM, first compound 3.16 µM
[30] = second compound 3.16 µM, first compound 10 µM
[31] = second compound 10 µM, first compound 0.0316 µM
[32] = second compound 10 µM, first compound 0.1 µM
[33] = second compound 10 µM, first compound 0.316 µM
[34] = second compound 10 µM, first compound 1 µM
[35] = second compound 10 µM, first compound 3.16 µM
[36] = second compound 10 µM, first compound 10 µM
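Also: spheroids exposed to agents for one week before reading.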
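For viability, T/C in this document: 100% = DMSO vehicle control viability.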

COc1ncnc(C2CC2)c1-c1ncc2cnn(Cc3ccc(-c4nc(C(F)(F)F)cn4C(C)C)cc3)c2n1 + Cc1cnc(CNC(=O)c2c(=O)c3ccc(N4CCCN(C)CC4)nc3n3c2sc2ccccc23)cn1
IC50 (second compound 0.0316 µM): > 10000 nM | IC50 (second compound 0.1 µM): > 10000 nM | IC50 (second compound 0.316 µM): < 31.6 nM | IC50 (second compound 1 µM): < 31.6 nM | IC50 (second compound 3.16 µM): < 31.6 nM | IC50 (second compound 10 µM): < 31.6 nM | viability, T/C [1]: 92.4% | viability, T/C [2]: 73.3% | viability, T/C [3]: 96.7% | viability, T/C [4]: 71.9% | viability, T/C [5]: 94.3% | viability, T/C [6]: 85.5% | viability, T/C [7]: 58% | viability, T/C [8]: 58.6% | viability, T/C [9]: 53.1% | viability, T/C [10]: 55.9% | viability, T/C [11]: 57.2% | viability, T/C [12]: 55.2% | viability, T/C [13]: 30.3% | viability, T/C [14]: 31.6% | viability, T/C [15]: 31.4% | viability, T/C [16]: 31.5% | viability, T/C [17]: 28.1% | viability, T/C [18]: 25.6% | viability, T/C [19]: 19.3% | viability, T/C [20]: 17.7% | viability, T/C [21]: 17% | viability, T/C [22]: 17.4% | viability, T/C [23]: 18.8% | viability, T/C [24]: 16.6% | viability, T/C [25]: 14.5% | viability, T/C [26]: 14.3% | viability, T/C [27]: 16.4% | viability, T/C [28]: 13.2% | viability, T/C [29]: 13.7% | viability, T/C [30]: 12.8% | viability, T/C [31]: 13% | viability, T/C [32]: 11.2% | viability, T/C [33]: 9.95% | viability, T/C [34]: 13.9% | viability, T/C [35]: 6.73% | viability, T/C [36]: 6.37%

O=c1[nH]cc(F)c(=O)[nH]1 + Cc1cnc(CNC(=O)c2c(=O)c3ccc(N4CCCN(C)CC4)nc3n3c2sc2ccccc23)cn1
IC50 (second compound 0.0316 µM): 1190 nM | IC50 (second compound 0.1 µM): 1540 nM | IC50 (second compound 0.316 µM): < 31.6 nM | IC50 (second compound 1 µM): < 31.6 nM | IC50 (second compound 3.16 µM): < 31.6 nM | IC50 (second compound 10 µM): < 31.6 nM | viability, T/C [1]: 88.7% | viability, T/C [2]: 70.5% | viability, T/C [3]: 76.8% | viability, T/C [4]: 51.6% | viability, T/C [5]: 31.6% | viability, T/C [6]: 16.7% | viability, T/C [7]: 65.2% | viability, T/C [8]: 56.2% | viability, T/C [9]: 56.5% | viability, T/C [10]: 62.2% | viability, T/C [11]: 33.4% | viability, T/C [12]: 22.4% | viability, T/C [13]: 36.7% | viability, T/C [14]: 56.3% | viability, T/C [15]: 30.3% | viability, T/C [16]: 31% | viability, T/C [17]: 20.2% | viability, T/C [18]: 17.8% | viability, T/C [19]: 23.2% | viability, T/C [20]: 22.5% | viability, T/C [21]: 20.1% | viability, T/C [22]: 16.6% | viability, T/C [23]: 17.8% | viability, T/C [24]: 14.1% | viability, T/C [25]: 18.1% | viability, T/C [26]: 19.5% | viability, T/C [27]: 17.8% | viability, T/C [28]: 19.1% | viability, T/C [29]: 17% | viability, T/C [30]: 11.7% | viability, T/C [31]: 18.7% | viability, T/C [32]: 21.7% | viability, T/C [33]: 17.3% | viability, T/C [34]: 14.2% | viability, T/C [35]: 15.5% | viability, T/C [36]: 12.1%

From PubChem BioAssay AID2060495 (Molecular Pharmacology Branch, DTP, NCI, 2025)
